Activity calls are given as the source filed them. The calls are words filed in the database; no cut-off is given here.
Key:
[1] = Observed clearance in CD-1 mouse at 1 mg/kg, iv measured after 24 hrs by LC-MS/MS analysis; format: ADME, organism-based; conditions: in vivo
U2932 [2] = test: Downregulation of Mcl-1 protein level in human U2932 cells incubated for 6 hrs by RT-qPCR analysis; format: functional, cell-based; conditions: dose 10-1000 nM
[3] = target: Cyclin-dependent kinase 9 (Homo sapiens) (UniProt P50750); test: Induction of CDK9 42 kDa degradation in human U2932 cells at 500 nM incubated for 12 hrs in presence of 5,7-Dihydroxy-4-methylcoumarin by immunoblotting analysis; format: cell-based
[4] = target: Cyclin-dependent kinase 9 (Homo sapiens) (UniProt P50750); test: Induction of CDK9 42 kDa degradation in human U2932 cells by immunoblotting analysis; format: cell-based; conditions: dose 1-1000 nM
[5] = Half life in CD-1 mouse at 1 mg/kg, iv measured after 24 hrs by LC-MS/MS analysis; format: ADME, organism-based; conditions: in vivo
[6] = target: Cyclin-dependent kinase 9 (Homo sapiens) (UniProt P50750); test: Induction of CDK9 42 kDa degradation in human U2932 cells at 500 nM incubated for 12 hrs in presence of SNS-032 by immunoblotting analysis; format: cell-based
A2780 = test: Cytotoxicity against human A2780 cells assessed as inhibition of cell growth measured after 72 hrs by CCK-8 assay; format: functional, cell-based
[7] = Observed MRTinfinity in CD-1 mouse at 5 mg/kg, ip measured after 24 hrs by LC-MS/MS analysis; format: ADME, organism-based; conditions: in vivo
[8] = target: Cyclin-dependent kinase 9 (Homo sapiens) (UniProt P50750); test: Induction of CDK9 42 kDa degradation in human U2932 cells assessed as maximal efficacy at 1 to 1000 nM by immunoblotting analysis relative to control; format: cell-based; conditions: dose 1-1000 nM
[9] = target: Cyclin-dependent kinase 9 (Homo sapiens) (UniProt P50750); test: Induction of CDK9 55 kDa degradation in human U2932 cells at 500 nM incubated for 12 hrs in presence of MG132 by immunoblotting analysis; format: cell-based
MV4-11 [10] = test: Induction of apoptosis in human MV4-11 cells at 1000 nM incubated for 24 hrs by AnnexinV-FITC/PI staining based flow cytometry analysis; format: functional, cell-based
U2932 [11] = test: Induction of LC3B […] in human U2932 cells at 500 nM incubated for 12 hrs in presence of BafA1 by Co-immunoprecipitation analysis; format: cell-based
[12] = Tmax in CD-1 mouse at 5 mg/kg, ip measured after 24 hrs by LC-MS/MS analysis; format: ADME, organism-based; conditions: in vivo
[13] = Volume of distribution at steady state in CD-1 mouse at 1 mg/kg, iv measured after 24 hrs by LC-MS/MS analysis; format: ADME, organism-based; conditions: in vivo, read-out: Vdss
U2932 [14] = test: Induction of apoptosis in human U2932 cells assessed as late apoptotic cells at 1000 nM incubated for 24 hrs by AnnexinV-FITC/PI staining based flow cytometry analysis (reference value: 5.95%); format: functional
[15] = Oral bioavailability in CD-1 mouse at 5 mg/kg measured after 24 hrs by LC-MS/MS analysis; format: ADME, organism-based; conditions: in vivo
HCT-116 = test: Cytotoxicity against human HCT-116 cells assessed as inhibition of cell growth measured after 72 hrs by CCK-8 assay; format: functional, cell-based
U2932 [16] = test: Downregulation of RNAP2 phosphorylation at serine 5 residue in human U2932 cells at 10 to 1000 nM incubated for 6 hrs by immunoblotting analysis; format: functional, cell-based; conditions: dose 10-1000 nM
[17] = target: Cyclin-dependent kinase 9 (Homo sapiens) (UniProt P50750); test: Induction of CDK9 42 kDa degradation in human U2932 cells at 500 nM incubated for 12 hrs in presence of BafA1 by immunoblotting analysis; format: cell-based
U2932 [18] = test: Induction of apoptosis in human U2932 cells assessed as viable cells at 1000 nM incubated for 24 hrs by AnnexinV-FITC/PI staining based flow cytometry analysis (reference value: 86.9%); format: functional; conditions: read-out: Activity
[19] = Half life in CD-1 mouse at 5 mg/kg, ip measured after 24 hrs by LC-MS/MS analysis; format: ADME, organism-based; conditions: in vivo
U2932 [20] = test: Induction of apoptosis in human U2932 cells assessed as early apoptotic cells at 1000 nM incubated for 24 hrs by AnnexinV-FITC/PI staining based flow cytometry analysis (reference value: 6.20%); format: functional
[21] = target: Cyclin-dependent kinase 9 (Homo sapiens) (UniProt P50750); test: Induction of CDK9 55 kDa degradation in human U2932 cells at 500 nM incubated for 12 hrs in presence of HCQ by immunoblotting analysis; format: cell-based
[22] = target: Cyclin-dependent kinase 9 (Homo sapiens) (UniProt P50750); test: Induction of CDK9 55 kDa degradation in human U2932 cells at 100 nM by immunoblotting analysis; format: cell-based; conditions: time 1-24 hrs, TDE = time-dependent effect
[23] = target: Cyclin-dependent kinase 9 (Homo sapiens) (UniProt P50750); test: Induction of CDK9 55 kDa degradation in human U2932 cells at 500 nM incubated for 12 hrs in presence of 5,7-Dihydroxy-4-methylcoumarin by immunoblotting analysis; format: cell-based
KP-4 = test: Cytotoxicity against human KP-4 cells assessed as inhibition of cell growth measured after 72 hrs by CCK-8 assay; format: functional, cell-based
[24] = target: Cyclin-dependent kinase 9 (Homo sapiens) (UniProt P50750); test: Induction of CDK9 55 kDa degradation in human U2932 cells at 500 nM incubated for 12 hrs in presence of SNS-032 by immunoblotting analysis; format: cell-based
[25] = target: Cyclin-dependent kinase 9 (Homo sapiens) (UniProt P50750); test: Induction of CDK9 42 kDa degradation in human U2932 cells at 500 nM incubated for 12 hrs in presence of BafA1 by Co-immunoprecipitation analysis; format: cell-based
HCT-8 = test: Cytotoxicity against human HCT-8 cells assessed as inhibition of cell growth measured after 72 hrs by CCK-8 assay; format: functional, cell-based
U2932 [26] = test: Downregulation of RNAP2 phosphorylation at serine 2 residue in human U2932 cells at 10 to 1000 nM incubated for 6 hrs by immunoblotting analysis; format: functional, cell-based; conditions: dose 10-1000 nM
[27] = target: Cyclin-dependent kinase 9 (Homo sapiens) (UniProt P50750); test: Induction of CDK9 55 kDa degradation in human U2932 cells by immunoblotting analysis; format: cell-based; conditions: dose 1-1000 nM
[28] = target: Cyclin-dependent kinase 9 (Homo sapiens) (UniProt P50750); test: (§1) Inhibition of GST-fused human full-length CDK9 (1 to 372(end) residues)/N-terminal GST-fused His-tagged human full-length CyclinT1 (1 to 726(end) residues) expressed in baculovirus expression system at 10 nM using CDK7/9 tide as substrate incubated for 120 mins in presence of ATP by ADP-Glo Kinase assay relative to control
[29] = Observed MRTinfinity in CD-1 mouse at 1 mg/kg, iv measured after 24 hrs by LC-MS/MS analysis; format: ADME, organism-based; conditions: in vivo
[30] = target: Cyclin-dependent kinase 9 (Homo sapiens) (UniProt P50750); test: as §1, with “100” for “10”
[31] = target: Cyclin-dependent kinase 9 (Homo sapiens) (UniProt P50750); test: Induction of CDK9 42 kDa degradation in human U2932 cells at 500 nM incubated for 12 hrs in presence of MLN4924 by immunoblotting analysis; format: cell-based
MV4-11 [32] = test: Downregulation of Mcl-1 protein level in human MV4-11 cells incubated for 6 hrs by RT-qPCR analysis; format: functional, cell-based; conditions: dose 10-1000 nM
[33] = target: Cyclin-dependent kinase 9 (Homo sapiens) (UniProt P50750); test: Induction of CDK9 55 kDa degradation in human U2932 cells at 500 nM incubated for 12 hrs in presence of MLN4924 by immunoblotting analysis; format: cell-based
[34] = Cmax in CD-1 mouse at 5 mg/kg, ip measured after 24 hrs by LC-MS/MS analysis; format: ADME, organism-based; design: dose 5 mg/kg, time 24 hrs, route ip; conditions: in vivo
[35] = target: Cyclin-dependent kinase 9 (Homo sapiens) (UniProt P50750); test: Induction of CDK9 degradation in LC3B knockout HEK293T cells at 100 nM incubated for 24 hrs by immunoblotting analysis; format: cell-based

Sequence of Cyclin-dependent kinase 9 (Homo sapiens) (P50750 whole entry): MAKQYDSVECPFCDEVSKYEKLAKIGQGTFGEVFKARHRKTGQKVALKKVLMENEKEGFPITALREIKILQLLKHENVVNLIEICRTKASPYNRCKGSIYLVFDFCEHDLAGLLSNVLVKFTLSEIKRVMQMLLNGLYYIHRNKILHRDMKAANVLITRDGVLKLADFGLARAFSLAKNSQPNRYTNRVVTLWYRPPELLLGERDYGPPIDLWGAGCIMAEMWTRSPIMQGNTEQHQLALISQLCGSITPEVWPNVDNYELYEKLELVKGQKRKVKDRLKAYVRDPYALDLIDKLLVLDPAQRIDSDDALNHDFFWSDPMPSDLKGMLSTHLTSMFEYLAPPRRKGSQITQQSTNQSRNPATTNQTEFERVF

SMILES: Cc1cc(=O)oc2cc(OCCCN3CCC(C(=O)Nc4ncc(SCc5ncc(C(C)(C)C)o5)s4)CC3)cc(O)c12
- clearance [1]: 140 mL/min/kg
- Activity (U2932 [2]): Active
- Activity [3]: inactive
- Activity [4]: Dose-Dependent Effect
- half-life [5]: 61.8 min
- Activity [6]: inactive
- Activity (A2780): Active
- MRT inf [7]: 3.84 h
- Emax [8]: 49.9%
- Activity [9]: Active
- Activity (MV4-11 [10]): Active
- Activity (U2932 [11]): Active
- Tmax [12]: 15 min
- Vd [13]: 5.7 L/kg
- Activity (U2932 [14]): 38.7%
- bioavailability [15]: 24.6%
- Activity (HCT-116): Active
- Activity (U2932 [16]): inactive
- Activity [17]: inactive
- viability at 1 µM (U2932 [18]): 47.4%
- half-life [19]: 217 min
- Activity (U2932 [20]): 11.8%
- Activity [21]: inactive
- Activity [22]: Tde
- Activity [23]: inactive
- Activity (KP-4): Active
- Activity [24]: inactive
- Activity [25]: Active
- Activity (HCT-8): Active
- Activity (U2932 [26]): Active
- Activity [27]: Dose-Dependent Effect
- inhibition [28]: 1%
- MRT inf [29]: 40.4 min
- inhibition [30]: 65%
- Activity [31]: Active
- Activity (MV4-11 [32]): Dose-Dependent Effect
- Activity [33]: Active
- Cmax [34]: 88.6 ng/mL
- Activity [35]: inactive

SMILES: Cc1cc(=O)oc2cc(O)cc(OCCCCCN3CCC(C(=O)Nc4ncc(SCc5ncc(C(C)(C)C)o5)s4)CC3)c12
- clearance [1]: 229 mL/min/kg
- Activity (U2932 [2]): Active
- Activity [3]: inactive
- Activity [4]: Dose-Dependent Effect
- half-life [5]: 118 min
- Activity [6]: inactive
- Activity (A2780): Active
- MRT inf [7]: 4.17 h
- Emax [8]: 59%
- Activity [9]: Active
- Activity (MV4-11 [10]): Active
- Activity (U2932 [11]): Active
- Tmax [12]: 15 min
- Vd [13]: 10.5 L/kg
- Activity (U2932 [14]): 40.9%
- bioavailability [15]: 43.1%
- Activity (HCT-116): Active
- Activity (U2932 [16]): inactive
- Activity [17]: inactive
- viability at 1 µM (U2932 [18]): 41.8%
- half-life [19]: 280 min
- Activity (U2932 [20]): 15.2%
- Activity [21]: inactive
- Activity [22]: Tde
- Activity [23]: inactive
- Activity (KP-4): Active
- Activity [24]: inactive
- Activity [25]: Active
- Activity (HCT-8): Active
- Activity (U2932 [26]): Active
- Activity [27]: Dose-Dependent Effect
- inhibition [28]: 1%
- MRT inf [29]: 47.4 min
- inhibition [30]: 54%
- Activity [31]: Active
- Activity (MV4-11 [32]): Dose-Dependent Effect
- Activity [33]: Active
- Cmax [34]: 88.4 ng/mL
- Activity [35]: inactive
